PubChem BioAssay AID743178 (NMMLSC, 2013)
Active and inactive are the calls of the source.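 Rule for the calls: active = percent MAC1 positive of at least 15% at the highest dose, plus EC50 under 10 µM; inactive = the rest.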

system: not listed separately; experiment: myeloid differentiation promoters in U937 leukemia cells, SAR follow-up, cell-based, MAC1 flow cytometry, set 1 (AID 743178); details: U937 myeloid differentiation, MAC1 flow cytometry, 4 d; at 10 µM (top of the series)

Structure (SMILES) | percent MAC1 positive
CC(C)(C)OC(=O)NCCC(=O)N[C@H]1CCCc2ccccc21 | 1.16% (inactive)
O=C(O)c1ccccc1OCc1ccccc1Br | 0% (inactive)
O=C(CCCNC(=O)c1ccc(C(F)(F)F)cc1)N[C@@H]1CCCc2ccccc21 | 2.46% (inactive)
O=C(CNC(=O)c1ccc(Cl)cc1)N[C@@H]1CCCc2ccccc21 | 1.65% (inactive)
O=C(CNC(=O)c1ccc(C(F)(F)F)cc1)N[C@@H]1CCCc2ccccc21 | 1.08% (inactive)
O=C(O)c1cccnc1Nc1ccc(Cl)cc1 | 85% (inactive)
O=C(CNC(=O)c1ccc(OC(F)(F)F)cc1)N[C@@H]1CCCc2ccccc21 | 1.56% (inactive)
Cc1ccc(C)c(OCCn2cc(C(=O)O)c3ccccc32)c1 | 0% (inactive)
COc1ccccc1C(C)NC(=O)CCNC(=O)c1ccc(Cl)cc1 (centres undefined) | 0.779% (inactive)
O=C(CCNC(=O)c1ccc(Cl)cc1)N[C@@H]1CCc2ccccc21 | 6% (inactive)
O=C(NC1CCOc2ccccc21)C1CCCN(C(=O)c2ccc(Cl)cc2)C1 (centres undefined) | 0.843% (inactive)
Cc1cccc(C(=O)NCCC(=O)NC2CCCc3ccccc32)c1 (centres undefined) | 1.09% (inactive)
O=C(CCNC(=O)c1ccc(Cl)cc1)N[C@H]1CCCc2ccccc21 | 2.12% (inactive)
NCCC(=O)N[C@@H]1CCCc2ccccc21 | 1.1% (inactive)
N#Cc1ccc(C(=O)NCCC(=O)N[C@@H]2CCCc3ccccc32)cc1 | 0.711% (inactive)
CC(c1ccccc1)N(C)C(=O)CCNC(=O)c1ccc(Cl)cc1 (centres undefined) | 0.788% (inactive)

Structure (SMILES) | percent MAC1 positive
CC(NC(=O)CCNC(=O)c1ccc(Cl)cc1)c1ccc2c(c1)OCO2 (centres undefined) | 1.17% (inactive)
O=C(CNC(=O)c1ccc(Cl)c(Cl)c1)N[C@@H]1CCCc2ccccc21 | 1.68% (inactive)
O=C(CCNC(=O)c1ccccc1)N[C@@H]1CCCc2ccccc21 | 1.8% (inactive)
O=C(NC1CCc2ccccc21)C1CCCN(C(=O)c2ccc(Cl)cc2)C1 (centres undefined) | 1.16% (inactive)
O=C(CCCNC(=O)c1ccc(Cl)cc1)N[C@@H]1CCCc2ccccc21 | 1.04% (inactive)
CC(=O)NCCC(=O)N[C@@H]1CCCc2ccccc21 | 0.776% (inactive)
O=C(CCCNC(=O)c1ccc(OC(F)(F)F)cc1)N[C@@H]1CCCc2ccccc21 | 0.912% (inactive)
C[C@@H](NC(=O)CCNC(=O)c1ccc(Cl)cc1)c1ccccc1 | 1.51% (inactive)
CC(NC(=O)CCNC(=O)c1ccc(Cl)cc1)c1ccc(F)cc1 (centres undefined) | 3.42% (inactive)
CC(C)(C)OC(=O)NCCC(=O)N[C@@H]1CCCc2ccccc21 | 1.18% (inactive)
CC(NC(=O)C1CCCN(C(=O)c2ccc(Cl)cc2)C1)c1ccccc1 (centres undefined) | 1.23% (inactive)
O=C(CCNC(=O)c1ccc(Cl)cc1)NC1CCCCC1 | 1.63% (inactive)
COc1ccc(C(=O)NCCC(=O)N[C@@H]2CCCc3ccccc32)cc1 | 28.1% (inactive)
O=C(CCCNC(=O)c1ccc(Cl)c(Cl)c1)N[C@@H]1CCCc2ccccc21 | 1.27% (inactive)
O=C(Cc1ccc(Cl)cc1)NCCC(=O)N[C@@H]1CCCc2ccccc21 | 13.3% (inactive)

system: U937 myeloid differentiation, MAC1 flow cytometry, 4 d; experiment: as above; details: not given

Structure (SMILES) | EC50
O=C(CCNC(=O)c1ccc(Cl)cc1)N[C@@H]1CCCc2ccccc21 | 2.78 µM
O=C(CCNC(=O)c1cccc(Cl)c1)N[C@@H]1CCCc2ccccc21 | 7.94 µM
O=C(CCNC(=O)c1ccc2c(c1)OC(F)(F)O2)N[C@@H]1CCCc2ccccc21 | 4.41 µM
O=C(CCNC(=O)c1ccc(C(F)(F)F)cc1)N[C@@H]1CCCc2ccccc21 | 2.26 µM
O=C(CCNC(=O)c1ccc(OC(F)(F)F)cc1)N[C@@H]1CCCc2ccccc21 | 2.07 µM
Cc1ccc(C(=O)NCCC(=O)N[C@@H]2CCCc3ccccc32)cc1 | 4.21 µM
O=C(CCNC(=O)c1ccc(Cl)cc1)NC1CCCc2ccccc21 (centres undefined) | 4.57 µM
O=C(CCNC(=O)c1ccc(Cl)c(Cl)c1)N[C@@H]1CCCc2ccccc21 | 3.4 µM
